According to ChEMBL document CHEMBL1126951, “Structure-based design of inhibitors of purine nucleoside phosphorylase. 2. 9-Alicyclic and 9-heteroalicyclic derivatives of 9-deazaguanine” (J Med Chem, 1993):

Experiments:
[1] = molecular target: T1, Purine nucleoside phosphorylase (Bos taurus, UniProt P55859); assay: biochemical
T1 sequence (P55859 whole entry): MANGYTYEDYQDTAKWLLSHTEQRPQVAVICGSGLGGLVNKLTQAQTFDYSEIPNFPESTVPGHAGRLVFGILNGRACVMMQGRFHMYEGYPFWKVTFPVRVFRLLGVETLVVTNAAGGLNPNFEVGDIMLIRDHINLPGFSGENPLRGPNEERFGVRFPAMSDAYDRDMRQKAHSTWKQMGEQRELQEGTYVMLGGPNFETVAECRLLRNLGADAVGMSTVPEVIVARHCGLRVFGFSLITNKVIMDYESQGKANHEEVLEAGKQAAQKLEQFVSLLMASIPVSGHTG
Description: In vitro inhibition of purine nucleoside phosphorylase from calf spleen in 1 mM phosphate

[2] = molecular target: T1, Purine nucleoside phosphorylase; assay: Inhibition of purine nucleoside phosphorylase from calf spleen in 50 mM phosphate

IC50 [1]	IC50 [2]	Compound
6600 nM	150000 nM	Nc1nc(O)c2[nH]c(N)c(CC3CCCCC3)c2n1
1000 nM	1000 nM	Nc1nc2c(CC3CCCNC3)c[nH]c2c(=O)[nH]1 (centres undefined)
	150000 nM	Nc1nc(O)c2[nH]cc(C3CCCCC3)c2n1
11 nM	220 nM	Nc1nc2c(CC3CCCS3)c[nH]c2c(=O)[nH]1 (centres undefined)
	820 nM	CC1CCCC(Cc2c[nH]c3c(=O)[nH]c(N)nc23)C1 (centres undefined)

Compound	IC50 [1]	IC50 [2]
Nc1nc2c(CC3CCCO3)c[nH]c2c(=O)[nH]1 (centres undefined)	70 nM	300 nM
Nc1nc2c(CC3CCCCCC3)c[nH]c2c(=O)[nH]1		860 nM
Nc1nc(O)c2[nH]cc(C3=CCCCC3)c2n1	1900 nM	19000 nM
Nc1nc(O)c2[nH]cc(CC3CCCSS3)c2n1 (centres undefined)		200 nM
